Results reported in patent US20250059231A1, “Protease inhibitors” (priority 2021, published 2025).
Where two headings read alike, the source gives them in different places. Where a SMILES comes first, the peptide text is derived from it. [ ]: non-standard residue; d: D form. The star is where a group is joined. Palmitoyl = CCCCCCCCCCCCCCCC(=O)*; hPhe = N[C@@H](CCc1ccccc1)C(=O)O; β3hK = NCCCC[C@H](N)CC(=O)O

How the values were obtained:
DENV protease = molecular target: T1, DENV protease (Dengue virus type 2, UniProt P29990); experiment: biochemical; details: read-out: inhibition of DENV
T1 construct: The virus-encoded dengue protease comprises the amino-terminal 180 amino acids of NS3 (NS3pro) of the polyprotein
Method in brief: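 DENV protease (100 nM) was pre-incubated 15 min with inhibitors in 50 mM Tris-HCl pH 9.0, 10% ethylene glycol, 0.0016% Brij 58. FRET substrate (50 μM final) started the reaction, monitored 15 min as RFU/s slope. IC50 came from triplicate means versus concentration.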

WNV protease [1] = molecular target: T2, WNV protease (West Nile virus, UniProt P06935); experiment: WNV protease assay (analogous procedure); type: biochemical; details: at 50 μM
T2 construct: a trypsin-like serine protease domain in the N-terminal region of the flaviviral NS3 proteins
Description: (§1) By catalytic activity of the protease, the cleaved substrate results in increased fluorescence that can be monitored using a BMG Labtech Fluostar OPTIMA Microtiter fluorescence plate reader (excitation wavelength of 320 nm and a monitored emission wavelength of 405 nm). Dilutions were made starting from 10 mM stock solutions in DMSO and final concentrations were measured in triplicates. The inhibitors were preincubated for 15 min with DENV protease (100 nM) in the assay buffer (50 mM Tris-HCl pH 9.0, ethylene glycol (10% v/v), and 0.0016% Brij 58). The enzymatic reaction was initiated by the addition of the FRET substrate (final concentration 50 μM) to obtain a final assay volume of 100 μL per well. The enzymatic activity was monitored for 15 min and determined as a slope of relative fluorescence units per second (RFU/s) for each concentration. The mean of the triplicates were plotted against the corresponding concentration in CDDVault to determine the IC50-values. Analogous procedures were used to determine the inhibitory potency on WNV (Kühl et al., J. Med. Chem. 2020, 63 (15): 8179-8197) and ZIKA protease (Nitsche et al., ACS Med. Chem. Lett. 2019 Feb. 14; 10 (2): 168-174). For selectivity screening of active candidates, similar biochemical assays with human serine proteases trypsin (Weigel et al., J. Med. Chem. 2015, 58 (19), 7719-7733.) and/or thrombin (Nitsche et al., J. Med. Chem. 2013, 56 (21), 8389-8403) were used.

ZIKA protease = molecular target: T3, ZIKA protease (Zika virus, UniProt Q32ZE1); experiment: biochemical; details: for inhibition at 50 µM / inhibition at 1 µM: read-out: inhibition of ZIKV
T3 construct: a trypsin-like serine protease domain in the N-terminal region of the flaviviral NS3 proteins
Description: as §1

human Thrombin = human Thrombin (Homo sapiens, UniProt P00734); experiment: Selectivity screening, human serine protease thrombin; type: biochemical; details: read-out: inhibition of human Thrombin
Description: as §1

human Trypsin = human Trypsin (Homo sapiens, UniProt P07477); experiment: Selectivity screening, human serine protease trypsin; type: biochemical; details: read-out: inhibition of human Trypsin
Description: as §1

WNV protease [2] = molecular target: T2, WNV protease; experiment: WNV protease assay (analogous procedure); type: biochemical; details: read-out: IC50 for WNNV

T1 sequence (P29990 1398-1437): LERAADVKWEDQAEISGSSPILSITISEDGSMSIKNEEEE
T1 sequence (P29990 1476-1653): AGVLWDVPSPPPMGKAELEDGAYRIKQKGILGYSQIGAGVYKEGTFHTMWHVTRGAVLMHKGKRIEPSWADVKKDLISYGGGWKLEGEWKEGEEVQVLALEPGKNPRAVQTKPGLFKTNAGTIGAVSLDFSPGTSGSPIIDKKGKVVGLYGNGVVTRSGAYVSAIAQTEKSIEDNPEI
T2 sequence (P06935 1424-1463): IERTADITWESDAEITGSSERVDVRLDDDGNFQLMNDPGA
T2 sequence (P06935 1502-1679): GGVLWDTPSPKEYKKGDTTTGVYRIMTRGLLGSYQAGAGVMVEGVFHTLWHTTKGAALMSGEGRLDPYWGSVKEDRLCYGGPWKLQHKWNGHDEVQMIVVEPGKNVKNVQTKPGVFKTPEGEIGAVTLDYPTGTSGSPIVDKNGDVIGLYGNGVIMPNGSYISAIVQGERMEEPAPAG
T3 sequence (Q32ZE1 1499-1676): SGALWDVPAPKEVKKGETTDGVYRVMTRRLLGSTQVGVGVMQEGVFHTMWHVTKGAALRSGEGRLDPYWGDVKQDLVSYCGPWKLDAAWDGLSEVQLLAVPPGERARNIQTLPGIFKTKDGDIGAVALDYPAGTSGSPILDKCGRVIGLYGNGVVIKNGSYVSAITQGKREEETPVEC
T3 sequence (Q32ZE1 1421-1460): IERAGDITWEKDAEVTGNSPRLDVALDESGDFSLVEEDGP

CCCCCCCCCCCCCCCC(=O)N[C@@H](CCCCC(=N)N)C(=O)N[C@@H](Cc1c[nH]cn1)C(N)=O [compound 170]
inhibition at 50 µM (DENV protease): ≥ 25% | inhibition at 50 µM (WNV protease [1]): ≥ 25% | IC50 (ZIKA protease): ≤ 25 µM | inhibition at 50 µM (ZIKA protease; at 50 μM): ≥ 65% | inhibition at 5 µM (human Thrombin; at 5 μM): < 5% | inhibition at 5 µM (human Trypsin; at 5 μM): < 10% | inhibition at 25 µM (human Trypsin; at 25 μM): < 20% | EC50 (West Nile virus): ≤ 25 µM | EC50 (ZIKV): ≤ 10 µM | IC50 (WNV protease [2]): ≤ 40 µM

CCCCCCCCCCCCCCCC(=O)N[C@@H](CCCCN)CC(=O)N[C@@H](C)C(=O)N[C@H](C)C(=O)N[C@@H](CCCCN)C(N)=O [compound 114] (Palmitoyl-[β3hK]A[dA]K-NH2)
inhibition at 1 µM (DENV protease; at 1 μM): ≥ 20% | inhibition at 50 µM (DENV protease): ≥ 25% | IC50 (ZIKA protease): ≤ 25 µM | inhibition at 1 µM (ZIKA protease; at 1 μM): ≥ 10% | inhibition at 50 µM (ZIKA protease; at 50 μM): ≥ 65% | inhibition at 5 µM (human Trypsin; at 5 μM): < 10% | inhibition at 25 µM (human Trypsin; at 25 μM): < 20% | EC50 (West Nile virus): ≤ 25 µM | EC50 (ZIKV): ≤ 10 µM | IC50 (WNV protease [2]): ≤ 40 µM

CCCCCCCCCCCCCCCC(=O)N[C@@H](CCCNC(=N)N)C(=O)N[C@@H](CC(N)=O)C(=O)N[C@@H](Cc1ccccc1)C(N)=O [compound 50] (Palmitoyl-Arg-Asn-Phe-NH2)
inhibition at 1 µM (DENV protease; at 1 μM): ≥ 20% | inhibition at 50 µM (DENV protease): ≥ 25% | IC50 (ZIKA protease): ≤ 25 µM | inhibition at 1 µM (ZIKA protease; at 1 μM): ≥ 10% | inhibition at 50 µM (ZIKA protease; at 50 μM): ≥ 65% | EC50 (West Nile virus): ≤ 25 µM | EC50 (ZIKV): ≤ 10 µM

CCCCCCCCCCCCCCCC(=O)N[C@@H](CCCNC(=N)N)C(=O)N[C@@H](CCC(N)=O)C(=O)N[C@@H](CCc1ccccc1)C(N)=O [compound 53] (Palmitoyl-Arg-Gln-[hPhe]-NH2)
inhibition at 50 µM (DENV protease): ≥ 25% | IC50 (ZIKA protease): ≤ 25 µM | inhibition at 50 µM (ZIKA protease; at 50 μM): ≥ 65% | EC50 (West Nile virus): ≤ 25 µM | EC50 (ZIKV): ≤ 10 µM

CCCCCCCCCCCCCCCC(=O)N[C@@H](CCCCN)C(=O)N[C@@H](C)C(=O)N[C@@H](C)C(=O)N[C@H](CCCCN)C(=O)c1ccccc1 [compound 136]
inhibition at 50 µM (DENV protease): ≥ 25% | inhibition at 1 µM (DENV protease): ≥ 20% | inhibition at 50 µM (WNV protease [1]): ≥ 25% | IC50 (ZIKA protease): ≤ 25 µM | inhibition at 1 µM (ZIKA protease): ≥ 10% | inhibition at 50 µM (ZIKA protease): ≥ 65% | inhibition at 5 µM (human Thrombin): < 5% | inhibition at 5 µM (human Trypsin): < 10% | inhibition at 25 µM (human Trypsin): < 20% | EC50 (West Nile virus): ≤ 25 µM | IC50 (WNV protease [2]): ≤ 40 µM

CCCCCCCCCCCCCCCC(=O)N[C@@H](CCCCN)CN1CCC[C@H]1C(=O)N[C@@H](C)C(=O)N[C@H](CCc1ccccc1)C(N)=O [compound 118]
inhibition at 50 µM (DENV protease): ≥ 25% | inhibition at 50 µM (WNV protease [1]): ≥ 25% | IC50 (ZIKA protease): ≤ 25 µM | inhibition at 1 µM (ZIKA protease; at 1 μM): ≥ 10% | inhibition at 50 µM (ZIKA protease; at 50 μM): ≥ 65% | inhibition at 5 µM (human Thrombin; at 5 μM): < 5% | inhibition at 5 µM (human Trypsin; at 5 μM): < 10% | inhibition at 25 µM (human Trypsin; at 25 μM): < 20% | EC50 (West Nile virus): ≤ 25 µM | EC50 (ZIKV): ≤ 10 µM | IC50 (WNV protease [2]): ≤ 40 µM

CCCCCCCCCCCCCCCC(=O)N[C@@H](CCCCN)C(=O)N1CCC[C@H]1C(=O)N[C@@H](C)C(=O)N[C@@H](CCCCN)C(=O)C(N)=O [compound 10]
inhibition at 50 µM (DENV protease): ≥ 25% | inhibition at 50 µM (WNV protease [1]): ≥ 25% | IC50 (ZIKA protease): ≤ 25 µM | inhibition at 50 µM (ZIKA protease; at 50 μM): ≥ 65% | inhibition at 5 µM (human Thrombin; at 5 μM): < 5% | inhibition at 5 µM (human Trypsin; at 5 μM): < 10% | EC50 (West Nile virus): ≤ 25 µM | IC50 (WNV protease [2]): ≤ 40 µM

CCCCCCCCCCCCCCCC(=O)N[C@@H](CCCCN)C(=O)N[C@@H](C)C(=O)N[C@@H](C)C(=O)N[C@@H](CCCCN)C(=O)C(N)=O [compound 9]
inhibition at 50 µM (DENV protease): ≥ 25% | inhibition at 50 µM (WNV protease [1]): ≥ 25% | IC50 (ZIKA protease): ≤ 25 µM | inhibition at 1 µM (ZIKA protease; at 1 μM): ≥ 10% | inhibition at 50 µM (ZIKA protease; at 50 μM): ≥ 65% | inhibition at 5 µM (human Thrombin; at 5 μM): < 5% | EC50 (West Nile virus): ≤ 25 µM | IC50 (WNV protease [2]): ≤ 40 µM

CCCCCCCCCCCCCCCC(=O)N[C@H](CCCCN)C(=O)N1CCC[C@H]1C(=O)N[C@@H](C)C(=O)N[C@@H](Cc1c[nH]c2ccccc12)C(N)=O [compound 196] (Palmitoyl-[dK]PAW-NH2)
inhibition at 50 µM (DENV protease): ≥ 25% | inhibition at 50 µM (WNV protease [1]): ≥ 25% | IC50 (ZIKA protease): ≤ 25 µM | inhibition at 50 µM (ZIKA protease; at 50 μM): ≥ 65% | inhibition at 5 µM (human Thrombin; at 5 μM): < 5% | inhibition at 5 µM (human Trypsin; at 5 μM): < 10% | inhibition at 25 µM (human Trypsin; at 25 μM): < 20% | EC50 (West Nile virus): ≤ 25 µM | EC50 (ZIKV): ≤ 10 µM | IC50 (WNV protease [2]): ≤ 40 µM

CCCCCCCCCCCCCCCC(=O)N[C@@H](C)C(=O)N[C@@H](CCCNC(=N)N)C(=O)N[C@@H](CCC(N)=O)C(=O)N[C@@H](Cc1ccccc1)C(N)=O [compound 54] (Palmitoyl-ARQF-NH2)
inhibition at 50 µM (DENV protease): ≥ 25% | IC50 (ZIKA protease): ≤ 25 µM | inhibition at 1 µM (ZIKA protease; at 1 μM): ≥ 10% | inhibition at 50 µM (ZIKA protease; at 50 μM): ≥ 65% | EC50 (West Nile virus): ≤ 25 µM | EC50 (ZIKV): ≤ 10 µM

CCCCCCCCCCCCCCCC(=O)N[C@@H](CCCCN)C(=O)N[C@@H](C)C(=O)N[C@@H](C)C(=O)N[C@@H](CCCCN)C(=O)O [compound 189] (Palmitoyl-KAAK-OH)
inhibition at 50 µM (DENV protease): ≥ 25% | IC50 (ZIKA protease): ≤ 25 µM | inhibition at 1 µM (ZIKA protease; at 1 μM): ≥ 10% | inhibition at 50 µM (ZIKA protease; at 50 μM): ≥ 65% | inhibition at 5 µM (human Thrombin; at 5 μM): < 5% | inhibition at 5 µM (human Trypsin; at 5 μM): < 10% | inhibition at 25 µM (human Trypsin; at 25 μM): < 20% | EC50 (West Nile virus): ≤ 25 µM | EC50 (ZIKV): ≤ 10 µM | IC50 (WNV protease [2]): ≤ 40 µM

CCCCCCCCCCCCCCCC(=O)N[C@@H](CCCNC(=N)N)C(=O)N[C@@H](CCC(N)=O)C(=O)N[C@H](Cc1ccccc1)C(N)=O [compound 49] (Palmitoyl-Arg-Gln-[dF]-NH2)
inhibition at 1 µM (DENV protease; at 1 μM): ≥ 20% | inhibition at 50 µM (DENV protease): ≥ 25% | IC50 (ZIKA protease): ≤ 25 µM | inhibition at 1 µM (ZIKA protease; at 1 μM): ≥ 10% | inhibition at 50 µM (ZIKA protease; at 50 μM): ≥ 65% | EC50 (ZIKV): ≤ 10 µM

CCCCCCCCCCCCCCCC(=O)N[C@@H](CCCNC(=N)N)C(=O)N[C@@H](C)C(=O)N[C@@H](CCc1ccccc1)C(N)=O [compound 51] (Palmitoyl-Arg-Ala-[hPhe]-NH2)
inhibition at 1 µM (DENV protease; at 1 μM): ≥ 20% | inhibition at 50 µM (DENV protease): ≥ 25% | IC50 (ZIKA protease): ≤ 25 µM | inhibition at 1 µM (ZIKA protease; at 1 μM): ≥ 10% | inhibition at 50 µM (ZIKA protease; at 50 μM): ≥ 65% | EC50 (West Nile virus): ≤ 25 µM | EC50 (ZIKV): ≤ 10 µM

CCCCCCCCCCCCCCCC(=O)N[C@H](CCCNC(=N)N)C(=O)N[C@@H](CCC(N)=O)C(=O)N[C@@H](Cc1ccccc1)C(N)=O [compound 44] (Palmitoyl-[dR]-Gln-Phe-NH2)
inhibition at 50 µM (DENV protease): ≥ 25% | inhibition at 50 µM (WNV protease [1]): ≥ 25% | IC50 (ZIKA protease): ≤ 25 µM | inhibition at 1 µM (ZIKA protease; at 1 μM): ≥ 10% | inhibition at 50 µM (ZIKA protease; at 50 μM): ≥ 65% | inhibition at 5 µM (human Thrombin; at 5 μM): < 5% | inhibition at 5 µM (human Trypsin; at 5 μM): < 10% | inhibition at 25 µM (human Trypsin; at 25 μM): < 20% | EC50 (West Nile virus): ≤ 25 µM | EC50 (ZIKV): ≤ 10 µM | IC50 (WNV protease [2]): ≤ 40 µM
